# Test results taken from patent US11160790B2, “Method of inhibiting Cryptococcus growth using eltrombopag” (priority 2019, dated 2021).
# Columns and labels:
# C. neoformans H99 [1] = assay: Melanization assay (L-DOPA); format: cell-based, Cryptococcus neoformans; conditions: 0.03 mg/L (¼ MIC) or 0.06 mg/L (½ MIC); 1 mM L-DOPA, 30° C.
# Procedure: (§1) Cryptococcus and Candida species were cultured in yeast extract-peptone-dextrose (YPD) medium (containing 1% yeast extract, 2% peptone, 2% glucose, and optionally 2% agar for preparation of an agar plate). Aspergillus, Fusarium, and Trichophyton species were cultured on potato dextrose agar (PDA) plate (containing 2% potato infusion, […], and 1.5% agar). A microdilution assay was performed to determine minimum inhibitory concentration (MIC), minimum fungicidal concentration (MFC), and fractional inhibitory concentration (FIC) index (FICI) using RPMI 1640 medium buffered with MOPS. Minimal medium (containing 15 mM glucose, 10 mM magnesium sulfate, 29.4 mM potassium dihydrogen phosphate, 13 mM glycine, and 3 μM thiamine hydrochloride; pH 5.5) was used for capsule size assay and melanization assay.
# Melanin protects Cryptococcus from toxic free radicals produced by the host defense system, and thus melanin production is important for the pathogenicity of Cryptococcus. To study whether eltrombopag has an effect on melanin production in Cryptococcus, 5×10^4 C. neoformans H99 cells were cultured in minimal medium (abbreviated as MM) with or without 1 mM L-DOPA in the presence or absence of eltrombopag. The flasks containing the cultures were wrapped in foil to prevent L-DOPA auto-polymerization. […]
# C. neoformans H99 [2] = assay: Checkerboard titration assay; format: cell-based, Cryptococcus neoformans; conditions: 30° C., 48 hours
# Procedure: (§2) Amphotericin B plus 5-flucytosine or fluconazole are combinations often used to treat cryptococcal meningitis. To investigate the synergy between eltrombopag and existing antifungal drugs or other drugs, a checkerboard titration assay was performed on Cryptococcus. Briefly, C. neoformans […] and C. deuterogattii […] cells were cultured overnight at 30° C. and then washed twice with double-distilled water. The cells were diluted to 10^3 cfu/mL with RPMI 1640 medium, and 100 μL of the cell suspension was added to each well of a 96-well polystyrene plate. […] After incubation at 30° C. for 48 hours, the growth of cells under different treatments was assessed by measuring the light absorbance at 600 nm (OD600). This assay allows the determination of fractional inhibitory concentration index (FICI): (MICcombined of drug A/MICalone of drug A)+(MICcombined of drug B/MICalone of drug B). After the checkerboard titration assay, the cells (3 μL) in the 96-well plate were transferred to drug-free YPD agar plates. After incubation at 30° C. for 48 hours, the agar plates were photographed and assessed for cell viability.
# C. neoformans H99 [3] = assay: Capsule size assay (India ink); format: cell-based, Cryptococcus neoformans; conditions: 0.06 mg/L, 37° C., 48 hours, versus no eltrombopag treatment
# Procedure: as §1
# (§3) Cryptococcus capsule, the structure attached to the outer surface of the cell wall and mainly composed of polysaccharides, can increase the resistance of Cryptococcus to host immune response (such as phagocytosis by macrophages) and harsh conditions (such as extreme acidity or alkalinity, high CO2 levels, or iron deprivation). To test whether eltrombopag affects capsule formation in Cryptococcus, C. neoformans H99 and C. deuterogattii R265 cells were cultured overnight in YPD media at 30° C. […] Statistical significance for the data sets was determined using a two-tailed t test.
# C. deuterogattii R265 [4] = assay: Capsule size assay (India ink); format: cell-based, Cryptococcus deuterogattii; conditions: 0.06 mg/L, 37° C., 48 hours, versus no eltrombopag treatment
# Procedure: as §1, §3
# C. deuterogattii R265 [5] = assay: Checkerboard titration assay; format: cell-based, Cryptococcus deuterogattii; conditions: 30° C., 48 hours
# Procedure: as §2
# C. neoformans H99 [6] = assay: XTT-reduction assay of biofilm metabolic activity; format: cell-based, Cryptococcus neoformans
# Procedure: Cryptococcus biofilms, which are composed of Cryptococcus cells and extracellular matrix, enhance the tolerance of Cryptococcus to antifungal agents (such as amphotericin B) and host defense mechanisms. To assess whether eltrombopag impacts biofilm formation in Cryptococcus, an XTT-reduction assay was used to measure the metabolic activity of C. neoformans cells treated with eltrombopag at 37° C. Briefly, C. neoformans […] cells were cultured in YPD medium at 30° C. overnight. The cells were washed twice with phosphate buffered saline (PBS) and resuspended in RPMI 1640 medium with or without eltrombopag at the indicated concentrations. The cell suspension (0.0005 OD600/mL) was added to a 96-well polystyrene plate and incubated at 37° C. for 24 or 48 hours. […] After incubation, the cells were washed three times with PBS and subjected to XTT reduction assay to quantify formazan formation by measuring the light absorbance at 492 nm. The experiments were performed in triplicate, and the results were presented as mean±standard deviation. Statistical significance for the data sets was determined using a two-tailed t test.
# C. neoformans H99 [7] = assay: Growth kinetics in RPMI 1640 (cell density); format: cell-based, Cryptococcus neoformans
# Procedure: To study the inhibitory effects of eltrombopag on the growth of Cryptococcus, C. neoformans H99 cells were cultured overnight at 30° C. and then washed twice with double-distilled water. The cells were diluted to 0.0005 OD600/mL with RPMI 1640 medium, and 5 mL of the cell suspension was treated with eltrombopag at 0.5, 0.25, 0.125, 0.06, or 0 mg/L and incubated at 37° C. with shaking at 150 rpm for 4 days. The cell density of the suspensions was measured every 12 hours with a SpectraMax190 microplate reader (Molecular Devices), and growth curves were plotted using Prism 5.03 (GraphPad Software, San Diego, Calif., USA). The experiments were performed in triplicate, and the results were presented as mean±standard deviation.
structure (smiles),measurement,setting,value
CC1=NN(c2ccc(C)c(C)c2)C(=O)/C1=N\Nc1cccc(-c2cccc(C(=O)O)c2)c1O [eltrombopag],melanin production,C. neoformans H99 [1],melanin production in C. neoformans reduced
same,MICalone,C. neoformans H99 [2],0.25 mg/L
same,MICcombined of ETP,C. neoformans H99 [2]; ETP in combination with AMB,0.03 mg/L
same,MICcombined of ETP,C. neoformans H99 [2]; ETP in combination with CsA,0.25 mg/L
same,MICcombined of ETP,C. neoformans H99 [2]; ETP in combination with FK506,0.015 mg/L
same,MICcombined of ETP,C. neoformans H99 [2]; ETP in combination with FLC,0.03 mg/L
same,capsule size,C. neoformans H99 [3],capsule size significantly reduced
same,capsule size,C. deuterogattii R265 [4],capsule size significantly reduced
same,MICalone,C. deuterogattii R265 [5],0.5 mg/L
same,MICcombined of ETP,C. deuterogattii R265 [5]; ETP in combination with AMB,0.03 mg/L
same,MICcombined of ETP,C. deuterogattii R265 [5]; ETP in combination with CsA,1 mg/L
same,MICcombined of ETP,C. deuterogattii R265 [5]; ETP in combination with FK506,0.015 mg/L
same,MICcombined of ETP,C. deuterogattii R265 [5]; ETP in combination with FLC,0.03 mg/L
same,reduction of metabolic activity compared to the control group,"C. neoformans H99 [6]; 0.125 mg/L, 37° C., 24 hours",more than 70%
same,"biofilm formation (metabolic activity, OD492)","C. neoformans H99 [6]; two-fold serially diluted from 4 to 0.015 mg/L, 48 hours",inhibited the formation of C. neoformans biofilms in a dose-dependent manner
same,growth kinetics (cell density),C. neoformans H99 [7]; 0.06 mg/L,did not affect the growth kinetics
same,growth kinetics (cell density),"C. neoformans H99 [7]; 0.25 mg/L or 0.5 mg/L, 37° C., 96 hours",static growth of C. neoformans was maintained
same,growth kinetics (cell density),"C. neoformans H99 [7]; 0.5, 0.25, 0.125, 0.06 mg/L, 37° C., 4 days",inhibited the growth of C. neoformans in a dose-dependent manner
